Data as given in ChEMBL document CHEMBL5236635, “Structure-Based Drug Design and Synthesis of Novel N-Aryl-2,4-bithiazole-2-amine CYP1B1-Selective Inhibitors in Overcoming Taxol Resistance in A549 Cells” (J Med Chem, 2022).
The source made the active and inactive calls. The calls are words filed in the database; no cut-off is given here.

What was measured:
[1] = target: T1, Cytochrome P450 1B1 (Homo sapiens, UniProt Q16678); assay: Inhibition of human CYP1B1; type: ADME
T1 sequence (Q16678 whole entry): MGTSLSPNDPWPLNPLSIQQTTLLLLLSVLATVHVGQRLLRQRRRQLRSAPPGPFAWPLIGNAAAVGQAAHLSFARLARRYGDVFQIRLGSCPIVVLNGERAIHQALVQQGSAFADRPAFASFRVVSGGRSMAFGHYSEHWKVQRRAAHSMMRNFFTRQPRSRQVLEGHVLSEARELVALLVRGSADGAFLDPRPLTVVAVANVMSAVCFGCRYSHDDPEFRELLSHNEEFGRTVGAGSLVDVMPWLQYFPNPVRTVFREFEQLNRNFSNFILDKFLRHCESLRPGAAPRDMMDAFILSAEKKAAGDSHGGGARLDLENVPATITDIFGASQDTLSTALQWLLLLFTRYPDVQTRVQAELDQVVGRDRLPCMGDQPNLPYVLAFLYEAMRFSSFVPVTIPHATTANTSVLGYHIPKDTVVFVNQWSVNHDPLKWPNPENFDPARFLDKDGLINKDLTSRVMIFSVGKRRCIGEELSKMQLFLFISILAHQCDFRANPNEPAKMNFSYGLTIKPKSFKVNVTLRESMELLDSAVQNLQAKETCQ

[2] = tested on: A549; assay: Antiproliferative activity against human A549 cells assessed as reduction in cell viability at 20 nM by MTT assay; type: functional, cell-based
[3] = tested on: A549; assay: Antiproliferative activity against human A549 cells assessed as reduction in cell viability at 10 nM by MTT assay; type: functional, cell-based
[4] = tested on: A549; assay: Antiproliferative activity against human A549 cells assessed as reduction in cell viability at 20 nM in presence of DMBA by MTT assay; type: functional, cell-based
[5] = target: T1, Cytochrome P450 1B1; assay: Inhibition of recombinant human CYP1B1 using 7-ethyl-0-resorufin as substrate incubated for 30 mins in presence of NADPH by EROD assay
[6] = target: T2, Cytochrome P450 1A1 (Homo sapiens, UniProt P04798); assay: Inhibition of recombinant human CYP1A1 using 7-ethyl-0-resorufin as substrate incubated for 30 mins in presence of NADPH by EROD assay
T2 sequence (P04798 whole entry): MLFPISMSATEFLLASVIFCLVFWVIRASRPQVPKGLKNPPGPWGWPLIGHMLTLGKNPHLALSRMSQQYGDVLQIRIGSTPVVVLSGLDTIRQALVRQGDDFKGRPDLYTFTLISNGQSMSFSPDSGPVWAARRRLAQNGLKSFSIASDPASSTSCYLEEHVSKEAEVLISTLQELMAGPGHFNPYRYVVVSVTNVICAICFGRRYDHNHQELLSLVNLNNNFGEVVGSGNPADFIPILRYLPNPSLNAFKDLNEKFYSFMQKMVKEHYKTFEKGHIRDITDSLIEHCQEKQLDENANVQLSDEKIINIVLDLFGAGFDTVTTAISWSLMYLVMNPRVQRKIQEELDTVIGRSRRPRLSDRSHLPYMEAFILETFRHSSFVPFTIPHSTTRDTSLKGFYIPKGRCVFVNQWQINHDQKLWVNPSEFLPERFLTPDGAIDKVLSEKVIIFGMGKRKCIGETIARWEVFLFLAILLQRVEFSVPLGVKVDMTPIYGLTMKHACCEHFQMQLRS

[7] = target: T3, Cytochrome P450 1A2 (Homo sapiens, UniProt P05177); assay: Inhibition of recombinant human CYP1A2 using 7-ethyl-0-resorufin as substrate incubated for 30 mins in presence of NADPH by EROD assay
T3 sequence (P05177 whole entry): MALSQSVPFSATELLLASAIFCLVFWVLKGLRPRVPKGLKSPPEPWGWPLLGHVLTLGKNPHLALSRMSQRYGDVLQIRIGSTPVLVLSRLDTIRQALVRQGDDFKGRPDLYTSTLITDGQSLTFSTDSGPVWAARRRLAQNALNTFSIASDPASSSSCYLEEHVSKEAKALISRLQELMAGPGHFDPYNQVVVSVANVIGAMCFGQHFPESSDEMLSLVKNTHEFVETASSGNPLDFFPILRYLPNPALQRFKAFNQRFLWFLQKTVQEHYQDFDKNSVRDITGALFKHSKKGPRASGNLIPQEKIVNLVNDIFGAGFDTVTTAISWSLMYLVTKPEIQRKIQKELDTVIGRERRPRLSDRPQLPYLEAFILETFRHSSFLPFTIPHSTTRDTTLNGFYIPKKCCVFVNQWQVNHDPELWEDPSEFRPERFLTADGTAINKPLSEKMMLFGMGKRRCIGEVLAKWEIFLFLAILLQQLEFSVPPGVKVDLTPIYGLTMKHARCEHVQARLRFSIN

[8] = tested on: CYP1A1 versus CYP1B1; assay: Selectivity index, ratio of IC50 for inhibition of recombinant human CYP1A1 to IC50 for inhibition of recombinant human CYP1B1; details: recombinant human CYP1A1 and recombinant human CYP1B1
[9] = tested on: A549; assay: Inhibition of DMBA induced taxol resistance in human A549 cells; type: functional, cell-based; details: dose 2.5-10 µM
[10] = target: T2, Cytochrome P450 1A1; assay: Inhibition of CYP1A1 (unknown origin) assessed as inhibition constant; type: ADME
[11] = tested on: A549/TR; assay: Reversal of taxol resistance in human A549/Taxol cells assessed as increase in Rho123 accumulation at 5 uM incubated for 20 mins by multimode plate reader analysis; type: functional, cell-based
[12] = target: T2, Cytochrome P450 1A1; assay: Inhibition of CYP1A1 (unknown origin); type: ADME
[13] = target: T1, Cytochrome P450 1B1; assay: Inhibition of CYP1B1 (unknown origin); type: ADME
[14] = target: T3, Cytochrome P450 1A2; assay: Inhibition of CYP1A2 (unknown origin); type: ADME

Work on `Cc1cc(O)c2c(c1)C(=O)c1cc(O)cc(O)c1C2=O` [EMODIN] yielded an IC50 [1] of 3.73 µM.

With `CC(=O)O[C@H]1C(=O)[C@@]2(C)[C@H]([C@H](OC(=O)c3ccccc3)[C@]3(O)C[C@H](OC(=O)[C@H](O)[C@@H](NC(=O)c4ccccc4)c4ccccc4)C(C)=C1C3(C)C)[C@]1(OC(C)=O)CO[C@@H]1C[C@@H]2O` the Activity [2] was “Active”, the Activity [3] was “Active” and the Activity [4] was “inactive”.

`Clc1ccccc1-c1csc(-c2csc(Nc3ccc(N4CCOCC4)cc3)n2)n1` was tested, and the IC50 [5] was 8.67 nM, the IC50 [6] was 46.6 nM and the IC50 [7] was over 10 µM. For the same compound, the selectivity ratio [8] was 5.37 and the inhibition [9] was “Dose-Dependent Effect”.

In the case of `CCC/C(C=C(C)C)=C\COc1c2occc2c(C)c2ccc(=O)oc12`, the Ki [10] is reported as 7.17 µM.

For `COc1ccc(CCN(C)CCCC(C#N)(c2ccc(OC)c(OC)c2)C(C)C)cc1OC` (centres undefined), the Activity [11] was “Active”.

In the case of `Nc1ccc2[nH]c3c(c2c1)CCn1c-3nc2ccccc2c1=O`, the IC50 [12] is reported as 2580 nM, the IC50 [13] is reported as 90 nM and the IC50 [14] is reported as 2580 nM.
